From PubChem BioAssay (NCI) come the findings set out here.

Common to all, as to assay: NCI anticancer screen, dose series, 48 h
The test system of assay [1] is A549 NSCLC.
The test system of assay [2] is CCRF-CEM leukemia.
Assay [3] has as its system HCT-15 colon.
Assay [4] has as its system HOP-62 NSCLC.
In assay [5] the test system is HS 578T breast.
Assay [6] has as its system IGROV1 ovarian.
Assay [7] deals with LOX IMVI melanoma.
Assay [8] has as its system M14 melanoma.
Assay [9] deals with MALME-3M melanoma.
In assay [10] the test system is MCF7 breast.
Assay [11] relates to MDA-MB-231 breast.
The subject of assay [12] is MDA-MB-435.
The test system of assay [13] is NCI-H226 lung.
In assay [14] the test system is OVCAR-4 ovarian.
The subject of assay [15] is PC-3 prostate.
Assay [16] concerns RPMI-8226 leukemia.
The subject of assay [17] is SF-295 CNS.
Assay [18] deals with SNB-19 CNS.
Assay [19] relates to SNB-75 CNS.

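Five concentrations, 48 hours, 96-well plates. TGI: total growth inhibition.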

For the compound `CCOC(=O)C1=C(N)Oc2ccc(Br)cc2C1C(C#N)C(=O)OCC` (centres undefined), the TGI in assay [1] was 70.5 µM; in assay [2], 44.5 µM; in assay [3] it was 40.9 µM; in [4] it was above 100 µM; in assay [5] it was 61 µM; in assay [6], 36.5 µM. In addition, the TGI in assay [7] is 33.1 µM; in assay [8], above 100 µM; in assay [9] it was 41 µM; in assay [10], 89.4 µM; in assay [11] it was 55.9 µM; in assay [12], 37.9 µM. Also, the TGI was 35.3 µM in assay [13]; 44.8 µM in [14]; 43.4 µM in assay [15]; 41.6 µM in [16]; above 100 µM in assay [17]; 68.1 µM in assay [18]. For the same compound, the TGI in assay [19] was above 100 µM.
For the compound `O=[N+]([O-])c1cc2c(c3nonc13)OCCCCO2`, the TGI worked out at 33.5 µM in assay [1]; 4.98 µM in assay [2]; 13.7 µM in assay [3]; 16.2 µM in [4]; 67.7 µM in assay [5]; 21.2 µM in assay [6]. Besides, the TGI in assay [7] was 12.6 µM; in [8], 17.9 µM; in assay [9], 11.9 µM; in [10], 24.2 µM; in assay [11] it was 12.1 µM; in assay [12], 17.9 µM. The TGI in assay [13] stood at 28.2 µM; in assay [14], 27.4 µM; in assay [15], 41.7 µM; in [16], 16.3 µM; in assay [17] it was 31.6 µM; in [18] it was 34.6 µM. In addition, the TGI in [19] was found to be 22.7 µM.
`O=C1/C(=C/c2ccccc2)NC(=S)N1CN1CCOCC1`: the TGI in [1], in assay [2], in assay [3], in [4], in assay [5] and in assay [6] was above 100 µM in each case. The TGI in assay [7], in assay [8], in assay [9], in [10], in assay [11] and in assay [12] was above 100 µM in each case. Moreover, the TGI in [13], in [14], in assay [15], in assay [16], in [17] and in [18] was above 100 µM throughout. In assay [19], this compound gave a TGI above 100 µM.
Turning to `C[C@@H]1CCC2[C@@H](C)[C@@H](OCCO[C@H]3OC4O[C@@]5(C)CCC6[C@H](C)CCC([C@H]3C)[C@@]46OO5)OC3O[C@@]4(C)CCC1[C@]32OO4` (some centres undefined), the TGI in [1], in assay [2], in assay [3], in [4], in [5] and in assay [6] was above 100 µM throughout. Further, the TGI is above 40.5 µM in [7]; above 100 µM in assay [8]; above 100 µM in [9]; above 42.3 µM in assay [10]; above 66.2 µM in [11]; 98.9 µM in assay [12]. The TGI in [13] is above 100 µM; in [14], above 100 µM; in [15], above 95.8 µM; in assay [16], above 100 µM; in assay [17], above 100 µM; in assay [18], above 100 µM. Moreover, the TGI in [19] is above 100 µM.
As for `O=C(O)c1cccnc1`, the TGI in [1], in assay [2], in assay [3], in assay [4], in assay [5] and in [6] was above 100 µM throughout. The TGI in [7], in [8], in assay [9], in [10], in assay [11] and in [12] was above 100 µM throughout. For the same compound, the TGI in assay [13], in assay [14], in [15], in assay [16], in assay [17] and in [18] was above 100 µM throughout. The compound further yielded a TGI in [19] above 100 µM.
For the compound `CCN1CCN=c2c3cc(OC)ccc3n3cnc4ccc1c2c43`, the TGI in [1] is 0.67 µM; in assay [2] it was 0.747 µM; in [3], 0.432 µM; in [4], 0.924 µM; in [5], 0.866 µM; in [6], 7.62 µM. For the same compound, the TGI in [7] was determined as 0.776 µM; in assay [8] it was 1.04 µM; in assay [9], 1.1 µM; in [10] it was 0.993 µM; in [11] it was 0.814 µM; in assay [12], 1.31 µM. The TGI in assay [13] was 0.718 µM; in [14], 1.86 µM; in [15] it was 0.8 µM; in assay [16] it was 0.558 µM; in assay [17], 1.29 µM; in assay [18] it was 1.95 µM. Also, the TGI in assay [19] is 1.4 µM.
